Laboratory results as given in patent US11365196B2, “FGFR inhibitor and application thereof” (Betta Pharmaceuticals Co., Ltd., priority 2017, dated 2022).
Like-named read-outs stand apart in the source and are kept apart here.

Tests used:
NCI-H1581 cells = assay: Cell proliferation assay on NCI-H1581 (Table 7); assay type: cell-based, human; settings: CellTiter 96 AQueous (144 hrs) or CellTiter Glo (96 hrs), class symbols, read-out: IC50(nM) value of compounds on NCI-H1581 cells
From the text: Test method: adding the appropriate volume of whole medium and the cells was suspended.

FGFR1 = FGFR1 (Homo sapiens (Human), UniProt P11362); assay: Kinase assay Method 1, mobility shift assay
Experimental: Method 1: The inhibitory activity of some compounds of the present disclosure against FGFR1, FGFR2, FGFR3, FGFR4, KDR was tested by mobility shift assay (concentration of ATP is Km value).
Preparing of compounds: dilute test compounds to specific concentration using 100% DMSO

FGFR4 = FGFR4 (Homo sapiens (Human), UniProt P22455); assay: Kinase assay Method 1, mobility shift assay; assay type: biochemical; settings: ATP at Km, numeric values, read-out: IC50(nM) value of compounds FGFR4
[1] = read-out: IC50(nM) value of compounds FGFR1, mobility shift assay, ATP at Km, class symbols

FGFR1, sequence (P11362 22-822): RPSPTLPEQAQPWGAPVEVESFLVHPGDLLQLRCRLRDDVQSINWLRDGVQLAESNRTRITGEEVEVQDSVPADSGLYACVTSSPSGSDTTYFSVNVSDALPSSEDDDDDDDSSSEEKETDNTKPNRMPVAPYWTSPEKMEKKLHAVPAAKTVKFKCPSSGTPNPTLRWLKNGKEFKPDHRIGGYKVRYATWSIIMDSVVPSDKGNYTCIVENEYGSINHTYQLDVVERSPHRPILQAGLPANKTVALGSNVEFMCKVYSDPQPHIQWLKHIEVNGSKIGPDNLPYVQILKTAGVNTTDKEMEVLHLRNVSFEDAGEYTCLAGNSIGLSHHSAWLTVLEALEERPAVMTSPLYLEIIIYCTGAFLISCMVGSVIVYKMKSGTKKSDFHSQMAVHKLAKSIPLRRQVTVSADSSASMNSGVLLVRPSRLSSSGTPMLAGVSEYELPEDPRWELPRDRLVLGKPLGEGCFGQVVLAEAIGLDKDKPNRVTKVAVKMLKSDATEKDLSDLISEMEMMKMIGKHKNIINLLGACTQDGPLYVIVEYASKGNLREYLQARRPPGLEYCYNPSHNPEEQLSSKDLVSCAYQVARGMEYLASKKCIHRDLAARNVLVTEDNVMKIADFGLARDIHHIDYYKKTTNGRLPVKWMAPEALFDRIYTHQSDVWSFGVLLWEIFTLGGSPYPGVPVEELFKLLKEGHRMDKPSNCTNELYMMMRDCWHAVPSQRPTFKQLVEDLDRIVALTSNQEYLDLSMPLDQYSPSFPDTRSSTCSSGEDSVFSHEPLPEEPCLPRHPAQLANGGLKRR
FGFR4, sequence (P22455 22-802): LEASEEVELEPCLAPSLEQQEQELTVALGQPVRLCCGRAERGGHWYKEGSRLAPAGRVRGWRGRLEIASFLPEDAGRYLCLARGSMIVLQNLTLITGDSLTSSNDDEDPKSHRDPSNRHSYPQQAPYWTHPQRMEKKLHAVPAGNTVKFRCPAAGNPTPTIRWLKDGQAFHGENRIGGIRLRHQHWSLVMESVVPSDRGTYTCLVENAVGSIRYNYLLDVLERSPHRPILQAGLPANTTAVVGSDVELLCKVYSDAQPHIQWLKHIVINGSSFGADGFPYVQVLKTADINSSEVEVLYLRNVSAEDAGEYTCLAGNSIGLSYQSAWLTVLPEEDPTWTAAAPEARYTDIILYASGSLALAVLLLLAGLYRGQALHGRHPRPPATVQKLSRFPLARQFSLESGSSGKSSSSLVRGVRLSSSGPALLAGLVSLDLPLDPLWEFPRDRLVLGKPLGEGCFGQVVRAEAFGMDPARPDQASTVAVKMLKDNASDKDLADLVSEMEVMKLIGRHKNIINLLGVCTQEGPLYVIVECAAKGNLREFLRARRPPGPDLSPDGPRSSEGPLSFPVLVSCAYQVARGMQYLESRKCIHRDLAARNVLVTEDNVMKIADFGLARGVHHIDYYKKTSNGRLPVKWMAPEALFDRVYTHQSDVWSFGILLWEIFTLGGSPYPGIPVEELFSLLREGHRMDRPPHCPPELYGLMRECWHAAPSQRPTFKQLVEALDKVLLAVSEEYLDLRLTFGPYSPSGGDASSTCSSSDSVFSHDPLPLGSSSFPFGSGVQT

SMILES | IC50 (NCI-H1581 cells; Homo sapiens, NCI-H1581) | IC50 (FGFR1; [1]) | IC50 (FGFR4) | IC50 (NCI-H1581 cells) | IC50 (FGFR1)
C=CC(=O)Nc1ccc(Cc2nnc3c(-c4cc(OC)cc(OC)c4Cl)cc4cnc(NCCN5CCOCC5)nc4n23)cc1 [Compound 86, N-(4-((6-(2-chloro-3,5-dimethoxyphenyl)-2-((2-morpholinoethyl)amino)-[1,2,4]triazolo[4′,3′:1,6]pyrido[2,3-d]pyrimidin-9-yl)methyl)phenyl)acrylamide] | 1 to 10 nM | > 10 nM | – | – | –
COc1cc(OC)c(Cl)c(-c2cc3cnc(Nc4ccc(N5CC6(CN(C(=O)N(C)C)C6)C5)cc4)nc3n3cnnc23)c1 [Compound 108, 6-(4-((6-(2-chloro-3,5-dimethoxyphenyl)-[1,2,4]triazolo[4′,3′:1,6]pyrido[2,3-d]pyrimidin-2-yl)amino)phenyl)-N,N-dimethyl-2,6-diazaspiro[3.3]heptane-2-carboxamide] | 10 to 100 nM | > 10 nM | – | – | –
COc1cc(OC)c(Cl)c(-c2cc3cnc(Nc4ccc(N5CC[N+]6(O)CCC[C@@H]6C5)cc4)nc3n3cnnc23)c1 (stereo partly drawn) [Compound 100, (8aR)-2-(4-((6-(2-chloro-3,5-dimethoxyphenyl)-[1,2,4]triazolo[4′,3′:1,6]pyrido[2,3-d]pyrimidin-2-yl)amino)phenyl)octahydro-5H-pyrrolo[1,2-a]pyrazine 5-oxide] | 10 to 100 nM | < 1 nM | – | – | –
CCN1CCN(Cc2ccc(Nc3ncc4cc(-c5cc(OC)cc(OC)c5Cl)c5nncn5c4n3)nc2)CC1 [Compound 17, 6-(2-chloro-3,5-dimethoxyphenyl)-N-(5-((4-ethylpiperazin-1-yl)methyl)pyridin-2-yl)-[1,2,4]triazolo[4′,3′:1,6]pyrido[2,3-d]pyrimidin-2-amine] | 10 to 100 nM | > 10 nM | – | – | –
C=CC(=O)Nc1ccc(Cc2nc3c(-c4cc(OC)cc(OC)c4Cl)cc4cnc(NCCN5CCOCC5)nc4n3n2)cc1 [Compound 112, N-(4-((4-(2-chloro-3,5-dimethoxyphenyl)-8-((2-morpholinoethyl)amino)-[1,2,4]triazolo[1′,5′:1,6]pyrido[2,3-d]pyrimidin-2-yl)methyl)phenyl)acrylamide] | 10 to 100 nM | > 100 nM | – | – | –
C=CC(=O)N1CCN(CCc2nnc3c(-c4cc(OC)cc(OC)c4Cl)cc4cnc(NC)nc4n23)CC1 [Compound 114, 1-(4-(2-(6-(2-chloro-3,5-dimethoxyphenyl)-2-(methylamino)-[1,2,4]triazolo[4′,3′:1,6]pyrido[2,3-d]pyrimidin-9-yl)ethyl)piperazin-1-yl)prop-2-en-1-one] | > 100 nM | > 100 nM | – | – | –
CCN1CCN(c2ccc(Nc3ncc4cc(-c5c(Cl)c(OC)cc(OC)c5Cl)c5nncn5c4n3)cc2)CC1 [Compound 61, 6-(2,6-dichloro-3,5-dimethoxyphenyl)-N-(4-(4-ethylpiperazin-1-yl)phenyl)-[1,2,4]triazolo[4′,3′:1,6]pyrido[2,3-d]pyrimidin-2-amine] | < 1 nM | < 1 nM | – | – | –
COc1cc(OC)c(Cl)c(-c2cc3cnc(Nc4ccc(N5CCC(N(C)C)CC5)cc4)nc3n3cnnc23)c1 [Compound 14, 6-(2-chloro-3,5-dimethoxyphenyl)-N-(4-(4-(dimethylamino)piperidin-1-yl)phenyl)[1,2,4]triazolo[4′,3′:1,6]pyrido[2,3-d]pyrimidin-2-amine] | < 1 nM | < 1 nM | – | – | –
C=CC(=O)N1CCN(CCCc2nc3c(-c4cc(OC)cc(OC)c4Cl)cc4cnc(NC)nc4n3n2)CC1 [Compound 115, 1-(4-(3-(4-(2-chloro-3,5-dimethoxyphenyl)-8-(methylamino)-[1,2,4]triazolo[1′,5′:1,6]pyrido[2,3-d]pyrimidin-2-yl)propyl)piperazin-1-yl)prop-2-en-1-one] | – | – | 6.8 nM | – | –
CCC(=O)Nc1ccc(Cc2nnc3c(-c4cc(OC)cc(OC)c4Cl)cc4cnc(NCCN5CCOCC5)nc4n23)cc1 [Compound 96, N-(4-((6-(2-chloro-3,5-dimethoxyphenyl)-2-((2-morpholinoethyl)amino)-[1,2,4]triazolo[4′,3′:1,6]pyrido[2,3-d]pyrimidin-9-yl)methyl)phenyl)propionamide] | > 100 nM | > 100 nM | – | – | –
COc1cc(OC)c(Cl)c(-c2cc3cnc(Nc4ccc(N(C)CCN(C)C)cc4)nc3n3cnnc23)c1 [Compound 21] | – | < 1 nM | – | 1 to 10 nM | –
COc1cc(OC)c(Cl)c(-c2cc3cnc(Nc4ccc(N5CC6CCC(C5)N6C)cc4)nc3n3cnnc23)c1 [Compound 23, 6-(2-chloro-3,5-dimethoxyphenyl)-N-(4-(8-methyl-3,8-diazabicyclo[3.2.1]octan-3-yl)phenyl)-[1,2,4]triazolo[4′,3′:1,6]pyrido[2,3-d]pyrimidin-2-amine] | < 1 nM | – | – | – | < 1 nM
C=CC(=O)N1CCN(CCCc2nnc3c(-c4cc(OC)cc(OC)c4Cl)cc4cnc(NC)nc4n23)CC1 [Compound 113, 1-(4-((6-(2-chloro-3,5-dimethoxyphenyl)-2-(methylamino)-[1,2,4]triazolo[4′,3′:1,6]pyrido[2,3-d]pyrimidin-9-yl)propyl)piperazin-1-yl)prop-2-en-1-one] | 10 to 100 nM | > 10 nM | – | – | –
COc1cc(OC)c(Cl)c(-c2cc3cnc(Nc4ccc(C5CCNCC5)c(C)c4)nc3n3cnnc23)c1 [Compound 52, 6-(2-chloro-3,5-dimethoxyphenyl)-N-(3-methyl-4-(piperidin-4-yl)phenyl)-[1,2,4]triazolo[4′,3′:1,6]pyrido[2,3-d]pyrimidin-2-amine] | < 1 nM | < 1 nM | – | – | –

The next lines start with results.

IC50 (NCI-H1581 cells; Homo sapiens, NCI-H1581) | IC50 (FGFR1; [1]) | IC50 (FGFR4) | IC50 (NCI-H1581 cells) | SMILES | IC50 (FGFR1)
< 1 nM | < 1 nM | – | – | COc1cc(OC)c(Cl)c(-c2cc3cnc(Nc4ccc(N5CCN(C(C)C)CC5)cc4)nc3n3cnnc23)c1 [Compound 11, 6-(2-chloro-3,5-dimethoxyphenyl)-N-(4-(4-isopropylpiperazin-1-yl)phenyl)-[1,2,4]triazolo[4′,3′:1,6]pyrido[2,3-d]pyrimidin-2-amine] | –
1 to 10 nM | < 1 nM | – | – | COc1cc(OC)c(Cl)c(-c2cc3cnc(Nc4ccc(N5CCN(CCO)CC5)cc4)nc3n3cnnc23)c1 [Compound 32, 2-(4-(4-((6-(2-chloro-3,5-dimethoxyphenyl)-[1,2,4]triazolo[4′,3′:1,6]pyrido[2,3-d]pyrimidin-2-yl)amino)phenyl)piperazin-1-yl)ethan-1-ol] | –
10 to 100 nM | > 10 nM | – | – | COc1cc(OC)c(Cl)c(-c2cc3cnc(Nc4ccc(N5CCN(C)CC5)cn4)nc3n3cnnc23)c1 [Compound 16, 6-(2-chloro-3,5-dimethoxyphenyl)-N-(5-(4-methylpiperazin-1-yl)pyridin-2-yl)-[1,2,4]triazolo[4′,3′:1,6]pyrido[2,3-d]pyrimidin-2-amine] | –
1 to 10 nM | < 1 nM | – | – | COc1cc(OC)c(Cl)c(-c2cc3cnc(Nc4ccc(N5CCN(C(=O)N(C)C)CC5)cc4)nc3n3cnnc23)c1 [Compound 107, 4-(4-((6-(2-chloro-3,5-dimethoxyphenyl)-[1,2,4]triazolo[4′,3′:1,6]pyrido[2,3-d]pyrimidin-2-yl)amino)phenyl)-N,N-dimethylpiperazine-1-carboxamide] | –
1 to 10 nM | < 1 nM | – | – | COc1cc(OC)c(Cl)c(-c2cc3cnc(Nc4ccc(N5CCN(C6CCCC6)CC5)cc4)nc3n3cnnc23)c1 [Compound 104, 6-(2-chloro-3,5-dimethoxyphenyl)-N-(4-(4-cyclopentylpiperazin-1-yl)phenyl)-[1,2,4]triazolo[4′,3′:1,6]pyrido[2,3-d]pyrimidin-2-amine] | –
< 1 nM | < 1 nM | – | – | COc1cc(OC)c(Cl)c(-c2cc3cnc(Nc4ccc(N5CCN(C)C(C)(C)C5)cc4)nc3n3cnnc23)c1 [Compound 26, 6-(2-chloro-3,5-dimethoxyphenyl)-N-(4-(3,3,4-trimethylpiperazin-1-yl)phenyl)-[1,2,4]triazolo[4′,3′:1,6]pyrido[2,3-d]pyrimidin-2-amine] | –
1 to 10 nM | < 1 nM | – | – | COc1cc(OC)c(Cl)c(-c2cc3cnc(Nc4ccc(N5CCN(C6COC6)CC5)cc4)nc3n3cnnc23)c1 [Compound 13, 6-(2-chloro-3,5-dimethoxyphenyl)-N-(4-(4-(oxetan-3-yl)piperazin-1-yl)phenyl)-[1,2,4]triazolo[4′,3′:1,6]pyrido[2,3-d]pyrimidin-2-amine] | –
< 1 nM | < 1 nM | – | – | COc1cc(OC)c(Cl)c(-c2cc3cnc(Nc4ccc(N5CCN(C)CC5)cc4)nc3n3cnnc23)c1 [Compound 15, 6-(2-chloro-3,5-dimethoxyphenyl)-N-(4-(4-methylpiperazin-1-yl)phenyl)-[1,2,4]triazolo[4′,3′:1,6]pyrido[2,3-d]pyrimidin-2-amine] | –
1 to 10 nM | > 10 nM | – | – | CC[N+]1([O-])CCN(c2ccc(Nc3ncc4cc(-c5cc(OC)cc(OC)c5Cl)c5nncn5c4n3)cc2)CC1 [Compound 99, 4-(4-((6-(2-chloro-3,5-dimethoxyphenyl)-[1,2,4]triazolo[4′,3′:1,6]pyrido[2,3-d]pyrimidin-2-yl)amino)phenyl)-1-ethylpiperazine 1-oxide] | –
1 to 10 nM | < 1 nM | – | – | COc1cc(OC)c(Cl)c(-c2cc3cnc(Nc4ccc(N5CCN(C(C)=O)CC5)cc4)nc3n3cnnc23)c1 [Compound 106, 6-(2-chloro-3,5-dimethoxyphenyl)-N-(4-(4-acetylpiperazine-1-yl)phenyl)-[1,2,4]triazolo[4′,3′:1,6]pyrido[2,3-d]pyrimidin-2-amine] | –
1 to 10 nM | – | – | – | COc1cc(OC)c(Cl)c(-c2cc3cnc(Nc4ccc(N5CCN(C6CCN(C)CC6)CC5)cc4)nc3n3cnnc23)c1 [Compound 22, 6-(2-chloro-3,5-dimethoxyphenyl)-N-(4-(4-(1-methylpiperidin-4-yl)piperazin-1-yl)phenyl)-[1,2,4]triazolo[4′,3′:1,6]pyrido[2,3-d]pyrimidin-2-amine] | –
